Source: patent publication US11071721B2, “Bicyclic amide compounds and methods of use thereof” (Genentech, Inc., priority 2016, dated 2021)

target: human RIP1 kinase domain (2-375) (Homo sapiens (Human), UniProt Q13546); test: RIP1 kinase inhibition assay (Transcreener ADP biochemical enzyme assay); conditions: Ki app (Morrison tight-binding fit); 50 nM enzyme, 50 uM ATP, 2 hours incubation, fluorescence polarization
Protocol: RIP1 Kinase Inhibition Assays (Biochemical Assay):
The compounds of the present invention were tested for their capacity to inhibit RIP K activity as described below.
Enzyme assay: The ability of the receptor interacting protein kinase (RIPK1) to catalyze the hydrolysis of adenosine-5′-triphosphate (ATP) is monitored using the Transcreener ADP (adenosine-5′-diphosphate) assay (BellBrook Labs). Purified human RIP1 kinase domain (2-375) (50 nM) derived from a baculovirus-infected insect cell expression system is incubated with test compounds for 2 hours in 50 mM Hepes buffer (pH 7.5) containing 30 mM MgCl2, 1 mM dithiothreitol, 50 uM ATP, 0.002% Brij-35, and 0.5% dimethyl sulfoxide (DMSO). Reactions are quenched by the addition of 1× Bell Brooks Stop buffer B (20 mM Hepes (ph7.5), 40 mM ethylenediaminetetraacetic acid and 0.02% Brij-35) containing an additional 12 mM EDTA and 55 ug/mL ADP2 antibody and 4 nM ADP-AlexaFluor® 633 tracer. The tracer bound to the antibody is displaced by the ADP generated during the RIP1K reaction, which causes a decrease in fluorescence polarization that is measured by laser excitation at 633 nm with a FP microplate reader M1000. Fractional activity was plotted against test article concentration. Using Genedata Screener software (Genedata; Basel, Switzerland), the data were fit to the tight-binding apparent inhibition constant (Ki^app) Morrison equation [Williams, J. W. and Morrison, J. F. (1979) The kinetics of reversible tight-binding inhibition. Methods Enzymol 63: 437-67]. The following equation was used to calculate fractional activity and Ki^app:
[formula] where [E]T and [I]T are the total concentrations of active enzyme and test article, respectively.

Chain of human RIP1 kinase domain (2-375) (Q13546 2-375): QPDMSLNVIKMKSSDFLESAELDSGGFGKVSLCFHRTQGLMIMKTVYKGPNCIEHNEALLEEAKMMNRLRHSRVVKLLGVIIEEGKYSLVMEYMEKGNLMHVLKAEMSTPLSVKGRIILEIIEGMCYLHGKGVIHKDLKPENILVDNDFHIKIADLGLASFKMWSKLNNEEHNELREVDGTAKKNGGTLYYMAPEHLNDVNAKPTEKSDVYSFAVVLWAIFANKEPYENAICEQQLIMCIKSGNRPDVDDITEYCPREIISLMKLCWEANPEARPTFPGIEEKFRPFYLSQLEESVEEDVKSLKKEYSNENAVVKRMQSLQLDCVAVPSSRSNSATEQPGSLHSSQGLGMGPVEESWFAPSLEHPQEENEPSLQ

Structure (SMILES)	Ki [µM]
O=C(c1nc2n(n1)C(c1ccccc1F)CC2)N1CCCC1 (racemic) [Example 34]	3.4
CCN(CC)C(=O)c1nc2n(n1)CCOC2c1ccccc1F (racemic) [Example 44, N,N-diethyl-8-(2-fluorophenyl)-6,8-dihydro-5H-[1,2,4]triazolo[5,1-c][1,4]oxazine-2-carboxamide]	4.8
CC1(F)CN(C(=O)c2nc3n(n2)C(c2ccccc2)CC3)C1 (racemic) [Example 20, (3-fluoro-3-methyl-azetidin-1-yl)-(5-phenyl-6,7-dihydro-5H-pyrrolo[1,2-b][1,2,4]triazol-2-yl)methanone]	0.271
O=C(c1cc2n(n1)CCOC2c1ccccc1)N1CC(F)(F)C1 (racemic) [Example 13, (3,3-difluoroazetidin-1-yl)-(4-phenyl-6,7-dihydro-4H-pyrazolo[5,1-c][1,4]oxazin-2-yl)methanone]	1.14
CC1CN(C(=O)c2nc3n(n2)[C@H](c2ccccc2)C[C@@H]3F)Cc2ccnn21 (mixture of isomers) [Example 62, (7-methyl-6,7-dihydro-4H-pyrazolo[1,5-a]pyrazin-5-yl)-[rac-(5S,7S)-7-fluoro-5-phenyl-6,7-dihydro-5H-pyrrolo[1,2-b][1,2,4]triazol-2-yl]methanone]	0.13
CCC(F)(F)n1ncc2cnc(C(=O)N3CC(F)(F)C3)cc21 [Example 103]	6.7
CN(CC(F)F)C(=O)c1nc2n(n1)[C@H](c1ccccc1)C[C@@H]2F (racemic) [Example 91, rac-(5S,7S)-N-(2,2-difluoroethyl)-7-fluoro-N-methyl-5-phenyl-6,7-dihydro-5H-pyrrolo[1,2-b] [1,2,4]triazole-2-carboxamide]	0.042
O=C(c1nc2n(n1)C(c1ccccc1)C1CC21)N1CC(F)C1 (racemic) [Example 46]	0.917
C[C@H]1[C@H](C(F)(F)F)CCN1C(=O)c1nc2n(n1)[C@H](c1ccccc1)C[C@@H]2F (racemic) [Example 85, [rac-(5S,7S)-7-fluoro-5-phenyl-6,7-dihydro-5H-pyrrolo[1,2-b][1,2,4]triazol-2-yl]-[rac-(2S,3R)-2-methyl-3-(trifluoromethyl)pyrrolidin-1-yl]methanone]	0.33
O=C(c1nc2n(n1)[C@H](c1ccccc1)C[C@@H]2F)N1CCC[C@@H]1C(F)(F)F (racemic) [Example 83, [rac-(5S,7S)-7-fluoro-5-phenyl-6,7-dihydro-5H-pyrrolo[1,2-b][1,2,4]triazol-2-yl]-[rac-(2R)-2-(trifluoromethyl)pyrrolidin-1-yl]methanone]	0.35
O=C(c1nc2n(n1)[C@H](c1ccccc1)C[C@@H]2F)N1CCCC1C(F)(F)F (mixture of isomers) [Example 84, [rac-(5S,7S)-7-fluoro-5-phenyl-6,7-dihydro-5H-pyrrolo[1,2-b][1,2,4]triazol-2-yl]-[2-(trifluoromethyl)pyrrolidin-1-yl]methanone]	0.3
O=C(c1nc2n(n1)[C@H](c1ccccc1)C[C@@H]2F)N1CCCC(F)(F)C1 (racemic) [Example 79, (3,3-difluoro-1-piperidyl)-[rac-(5S,7S)-7-fluoro-5-phenyl-6,7-dihydro-5H-pyrrolo[1,2-b][1,2,4]triazol-2-yl] methanone]	0.79
O=C(c1nc2n(n1)[C@H](c1ccccc1)C[C@@H]2F)N1CC(C(F)F)C1 (racemic) [Example 51, [3-(difluoromethyl)azetidin-1-yl]-[rac-(5S, 7S)-7-fluoro-5-phenyl-6,7-dihydro-5H-pyrrolo[1,2-b][1,2,4]triazol-2-yl]methanone]	0.1
O=C(c1nc2n(n1)C(c1ccccc1)CC2)N1CCCCC1 (racemic) [Example 29, (5-phenyl-6,7-dihydro-5H-pyrrolo[1,2-b][1,2,4]triazol-2-yl)-(1-piperidyl)methanone]	5.4
O=C(c1nc2n(n1)C(c1ccccc1F)CC2)N1CC(F)C1 (racemic) [Example 24, (3-fluoroazetidin-1-yl)-[5-(2-fluorophenyl)-6,7-dihydro-5H-pyrrolo[1,2-b][1,2,4]triazol-2-yl]methanone]	0.194
O=C(c1nc2n(n1)C(c1ccccc1)C1CC21)N1CC(F)(F)C1 (racemic) [Example 47]	0.195
O=C(c1nc2n(n1)[C@@H](c1ccccc1)C[C@@H]2F)N1CC(F)(F)C1 (racemic) [Example 2, (3,3-difluoroazetidin-1-yl)-[rac-(5R,7S)-7-fluoro-5-phenyl-6,7-dihydro-5H-pyrrolo[1,2-b][1,2,4]triazol-2-yl]methanone]	0.478
O=C(c1nc2n(n1)[C@@H](c1ccccc1)CC2)N1CC(F)(F)C1 (stereo in doubt) [Example 32, (3,3-difluoroazetidin-1-yl)-[rac-(5R)-5-phenyl-6,7-dihydro-5H-pyrrolo[1,2-b][1,2,4]triazol-2-yl]methanone]	0.066

Structure (SMILES)	Ki [µM]
O=C(c1nc2n(n1)CCC2c1ccccc1)N1CC(F)(F)C1 (racemic) [Example 4, (3,3-difluoroazetidin-1-yl)-(7-phenyl-6,7-dihydro-5H-pyrrolo[1,2-b][1,2,4]triazol-2-yl)methanone]	0.205
CC(F)(F)C1CCc2nc(C(=O)N3CC(F)(F)C3)nn21 (racemic) [Example 8, (3,3-difluoroazetidin-1-yl)-[5-(1,1-difluoroethyl)-6,7-dihydro-5H-pyrrolo[1,2-b][1,2,4]triazol-2-yl]methanone]	8.69
CNC(=O)c1nc2n(n1)C(c1ccccc1)CC2 (racemic) [Example 25, N-methyl-5-phenyl-6,7-dihydro-5H-pyrrolo[1,2-b][1,2,4]triazole-2-carboxamide]	3.6
O=C(c1nc2n(n1)[C@H](c1ccccc1)C[C@@H]2F)N(CC(F)(F)F)C1CC1 (racemic) [Example 59, rac-(5S,7S)-N-cyclopropyl-7-fluoro-5-phenyl-N-(2,2,2-trifluoroethyl)-6,7-dihydro-5H-pyrrolo[1,2-b][1,2,4|]triazole-2-carboxamide]	2.2
O=C(c1nc2n(n1)C(c1ccccc1)CC2)N1CC(F)C1 (racemic) [Example 18, (3-fluoroazetidin-1-yl)-(5-phenyl-6,7-dihydro-5H-pyrrolo[1,2-b][1,2,4]triazol-2-yl)methanone]	0.343
CN(C)C(=O)c1nc2n(n1)C(c1ccccc1F)CC2 (racemic) [Example 33]	1.4
O=C(c1nc2n(n1)C(c1ccccc1)CC2)N1CC2CC1C2 (racemic) [Example 28, 2-azabicyclo[2.1.1]hexan-2-yl-(5-phenyl-6,7-dihydro-5H-pyrrolo[1,2-b][1,2,4]triazol-2-yl)methanone]	8.9
COCCN(CC(F)F)C(=O)c1nc2n(n1)[C@@H](c1ccccc1)C[C@H]2F (racemic) [Example 56, rac-(5R,7R)-N-(2,2-difluoroethyl)-7-fluoro-N-(2-methoxyethyl)-5-phenyl-6,7-dihydro-5H-pyrrolo[1,2-b[[1,2,4]triazole-2-carboxamide]	0.52
O=C(c1nc2n(n1)C(c1ccccc1)CC2)N1CC(F)(F)C1 (racemic) [Example 16, (3,3-difluoroazetidin-1-yl)-(5-phenyl-6,7-dihydro-H-pyrrolo[1,2-b][1,2,4]triazol-2-yl)methanone]	0.105
Cc1cc2n(n1)CCN(C(=O)c1nc3n(n1)[C@H](c1ccccc1)C[C@@H]3F)C2 (racemic) [Example 63, (2-methyl-6,7-dihydro-4H-pyrazolo[1,5-a]pyrazin-5-yl)-[rac-(5S,7S)-7-fluoro-5-phenyl-6,7-dihydro-5H-pyrrolo[1,2-b][1,2,4]triazol-2-yl]methanone]	2.3
O=C(c1nc2n(n1)[C@H](c1ccccc1)C[C@@H]2F)N1CC[C@H]1C(F)F (single isomer, unassigned) [Example 52]	0.005
O=C(c1nc2n(n1)[C@H](c1ccccc1)C[C@@H]2F)N1CCc2ncccc2C1 (racemic) [Example 89, 7,8-dihydro-5H-1,6-naphthyridin-6-yl-[rac-(5S,7S)-7-fluoro-5-phenyl-6,7-dihydro-5H-pyrrolo[1,2-b][1,2,4]triazol-2-yl]methanone]	0.13
CC[C@@]1(C)OCc2cnc(C(=O)N3CC(F)(F)C3)cc21 (single isomer, unassigned) [Example 7]	1.98
O=C(c1nc2n(n1)[C@H](c1ccccc1)C[C@H]2F)N1CC(F)C1 (racemic) [Example 35]	1.3
O=C(c1nc2n(n1)[C@@H](c1ccccc1)C[C@H]2F)N1CC(F)C1 (racemic) [Example 39]	0.032
O=C(c1nc2n(n1)[C@H](c1ccccc1)C[C@@H]2F)N1CCC(Oc2ccccc2)C1 (mixture of isomers) [Example 77, (3-phenoxypyrrolidin-1-yl)-[rac-(5S,7S)-7-fluoro-5-phenyl-6,7-dihydro-5H-pyrrolo[1,2-b][1,2,4]triazol-2-yl]methanone]	0.061
CN(C)C(=O)c1nc2n(n1)C(c1ccccc1)CC2 (racemic) [Example 27, N,N-dimethyl-5-phenyl-6,7-dihydro-5H-pyrrolo[1,2-b][1,2,4]triazole-2-carboxamide]	2.2
